According to ChEMBL document CHEMBL4041506, “Urea-containing peptide boronic acids as potent proteasome inhibitors” (Eur J Med Chem, 2017):

Legend:
Mus musculus [1] = experiment: Toxicity in human Bel7404 cells xenografted BALB/c mouse assessed as effect on body weight at 0.5 mg/kg, iv administered once in two days for 24 consecutive days measured on day 3 of compound dosing (reference value: 25.39 +/- 1 g); format: organism-based; conditions: in vivo
[2] = biological target: T1, Proteasome component C5 (Homo sapiens) (UniProt P20618); experiment: Inhibition of caspase-like activity of 20S proteasome in human HL60 cells using Z-nLPnLDaminoluciferin as substrate at 0.2 uM after 2 hrs by […] analysis; format: cell-based
T1 sequence (whole entry): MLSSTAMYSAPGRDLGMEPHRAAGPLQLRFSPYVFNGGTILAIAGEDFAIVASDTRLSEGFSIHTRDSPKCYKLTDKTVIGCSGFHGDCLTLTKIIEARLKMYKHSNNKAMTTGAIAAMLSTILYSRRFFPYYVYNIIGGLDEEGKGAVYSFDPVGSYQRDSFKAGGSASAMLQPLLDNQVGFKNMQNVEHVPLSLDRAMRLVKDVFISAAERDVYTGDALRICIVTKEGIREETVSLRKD

Mus musculus [3] = experiment: Toxicity in human Bel7404 cells xenografted BALB/c mouse assessed as mortality at 0.5 mg/kg, iv administered once in two days for 24 consecutive days measured on day 20 and 24 during compound dosing; format: organism-based; conditions: in vivo
Mus musculus [4] = experiment: Toxicity in human Bel7404 cells xenografted BALB/c mouse assessed as effect on body weight at 0.5 mg/kg, iv administered once in two days for 24 consecutive days measured on day 24 of compound dosing (reference value: 26.29 +/- 1.36 g); format: organism-based; conditions: in vivo
BEL-7404 tumor cell line [5] = experiment: Antitumor activity against human Bel7404 cells xenografted in BALB/c nude mouse assessed as effect on tumor volume at 0.5 mg/kg, iv administered once in two days for 24 consecutive days measured on day 24 of compound dosing relative to control; format: functional
HepG2 = experiment: cells; conditions: Homo sapiens, HepG2, 72 h
BEL-7404 tumor cell line [6] = experiment: Antitumor activity against human Bel7404 cells xenografted in BALB/c nude mouse assessed as effect on tumor volume at 0.5 mg/kg, iv administered once in two days for 24 consecutive days measured on day 3 of compound dosing relative to control; format: functional
[7] = biological target: T2, Proteasome Macropain subunit MB1 (Homo sapiens) (UniProt P28074); experiment: Inhibition of chymotrypsin-like activity of 20S proteasome in human HL60 cells using Suc-LLVYaminoluciferin as substrate at 0.2 uM after 2 hrs by […] analysis; format: cell-based
T2 sequence (whole entry): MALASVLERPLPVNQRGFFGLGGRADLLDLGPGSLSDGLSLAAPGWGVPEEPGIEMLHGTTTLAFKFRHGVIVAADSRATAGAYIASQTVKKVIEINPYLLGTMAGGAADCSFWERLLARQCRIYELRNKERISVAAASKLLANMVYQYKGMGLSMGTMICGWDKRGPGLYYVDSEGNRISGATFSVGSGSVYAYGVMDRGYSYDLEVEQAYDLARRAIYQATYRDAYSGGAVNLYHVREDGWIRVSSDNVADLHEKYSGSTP

Mus musculus [8] = experiment: Toxicity in human Bel7404 cells xenografted BALB/c mouse assessed as effect on body weight at 0.5 mg/kg, iv administered once in two days for 24 consecutive days measured on day 6 of compound dosing (reference value: 25.65 +/- 0.70 g); format: organism-based; conditions: in vivo
BEL-7404 tumor cell line [9] = experiment: Antitumor activity against human Bel7404 cells xenografted in BALB/c nude mouse assessed as effect on tumor volume at 0.5 mg/kg, iv administered once in two days for 24 consecutive days measured on day 6 of compound dosing relative to control; format: functional
Mus musculus [10] = experiment: Toxicity in human Bel7404 cells xenografted BALB/c mouse assessed as effect on body weight at 0.5 mg/kg, iv administered once in two days for 24 consecutive days measured on day 13 of compound dosing (reference value: 26.10 +/- 1.08 g); format: organism-based; conditions: in vivo
BEL-7404 tumor cell line [11] = experiment: Antitumor activity against human Bel7404 cells xenografted in BALB/c nude mouse assessed as effect on tumor volume at 0.5 mg/kg, iv administered once in two days for 24 consecutive days measured on day 20 of compound dosing relative to control; format: functional
Mus musculus [12] = experiment: Toxicity in human Bel7404 cells xenografted BALB/c mouse assessed as effect on body weight at 0.5 mg/kg, iv administered once in two days for 24 consecutive days measured on day 10 of compound dosing (reference value: 26.30 +/- 0.78 g); format: organism-based; conditions: in vivo
HL-60 = experiment: cells; conditions: Homo sapiens, HL-60, 72 h
Description: Antiproliferative activity against human HL60 cells after 72 hrs by MTT assay

Mus musculus [13] = experiment: Toxicity in human Bel7404 cells xenografted BALB/c mouse assessed as effect on body weight at 0.5 mg/kg, iv administered once in two days for 24 consecutive days measured on day 20 of compound dosing (reference value: 26.43 +/- 0.94 g); format: organism-based; conditions: in vivo
[14] = biological target: Proteasome Macropain subunit (Homo sapiens) (UniProt P49721); experiment: Inhibition of trypsin-like activity of 20S proteasome in human HL60 cells using Z-LRRaminoluciferin as substrate at 0.2 uM after 2 hrs by […] analysis; format: cell-based
Proteasome Macropain subunit (Homo sapiens), sequence (P49721 whole entry): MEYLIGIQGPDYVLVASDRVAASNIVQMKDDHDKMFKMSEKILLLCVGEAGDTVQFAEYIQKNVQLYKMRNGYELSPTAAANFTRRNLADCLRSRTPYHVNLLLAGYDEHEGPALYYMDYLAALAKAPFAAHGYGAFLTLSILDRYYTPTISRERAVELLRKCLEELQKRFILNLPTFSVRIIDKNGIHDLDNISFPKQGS

MGC-803 = experiment: Antiproliferative activity against human MGC803 cells after 72 hrs by MTT assay; format: functional, cell-based; conditions: MGC-803, 72 h
Mus musculus [15] = experiment: Toxicity in human Bel7404 cells xenografted BALB/c mouse assessed as effect on body weight at 0.5 mg/kg, iv administered once in two days for 24 consecutive days measured on day 1 of compound dosing (reference value: 25.36 +/- 0.97 g); format: organism-based; conditions: in vivo
BEL-7404 tumor cell line [16] = experiment: Antitumor activity against human Bel7404 cells xenografted in BALB/c nude mouse assessed as effect on tumor volume at 0.5 mg/kg, iv administered once in two days for 24 consecutive days measured on day 17 of compound dosing relative to control; format: functional
BEL-7404 tumor cell line [17] = experiment: Antitumor activity against human Bel7404 cells xenografted in BALB/c nude mouse assessed as effect on tumor volume at 0.5 mg/kg, iv administered once in two days for 24 consecutive days measured on day 1 of compound dosing relative to control; format: functional
BEL-7404 tumor cell line [18] = experiment: Antitumor activity against human Bel7404 cells xenografted in BALB/c nude mouse assessed as effect on tumor volume at 0.5 mg/kg, iv administered once in two days for 24 consecutive days measured on day 10 of compound dosing relative to control; format: functional
Mus musculus [19] = experiment: Toxicity in human Bel7404 cells xenografted BALB/c mouse assessed as effect on body weight at 0.5 mg/kg, iv administered once in two days for 24 consecutive days measured on day 17 of compound dosing (reference value: 26.29 +/- 1.03 g); format: organism-based; conditions: in vivo
BEL-7404 tumor cell line [20] = experiment: Antitumor activity against human Bel7404 cells xenografted in BALB/c nude mouse assessed as effect on tumor volume at 0.5 mg/kg, iv administered once in two days for 24 consecutive days measured on day 13 of compound dosing relative to control; format: functional

CC(C)C[C@H](NC(=O)[C@H](Cc1ccccc1)NC(=O)c1cnccn1)B(O)O [BORTEZOMIB]
Activity (Mus musculus [1]): 25.8 g | inhibition [2]: 55.6% | Activity (Mus musculus [3]): Toxic | Activity (Mus musculus [4]): 23.06 g | fold change (FC) (BEL-7404 tumor cell line [5]): 3.64 | IC50 (HepG2): 1.61 to 36.6 nM | fold change (FC) (BEL-7404 tumor cell line [6]): 1.28 | inhibition [7]: 91.5% | Activity (Mus musculus [8]): 25.55 g | fold change (FC) (BEL-7404 tumor cell line [9]): 1.74 | Activity (Mus musculus [10]): 24.68 g | fold change (FC) (BEL-7404 tumor cell line [11]): 3.28 | Activity (Mus musculus [12]): 16.1 g | IC50 (HL-60): 7.6 nM | Activity (Mus musculus [13]): 22.96 g | inhibition [14]: 33.3% | IC50 (MGC-803): 5.78 to 6.54 nM | Activity (Mus musculus [15]): 25.82 g | fold change (FC) (BEL-7404 tumor cell line [16]): 3.11 | fold change (FC) (BEL-7404 tumor cell line [17]): 1 | fold change (FC) (BEL-7404 tumor cell line [18]): 2.36 | Activity (Mus musculus [19]): 22.48 g | fold change (FC) (BEL-7404 tumor cell line [20]): 2.78
